{"source": "patent US20210179989A1", "about": "“SYSTEM AND METHODS FOR OPTOGENETIC EVALUATION OF HUMAN NEUROMUSCULAR FUNCTION” (priority 2018, published 2021)", "tested_on": "acetylcholine receptors in the NMJ", "type": "cell-based, human", "data": [{"substance": "α-bungarotoxin [BTX]", "values": [{"measurement": "average number of spontaneous contractions after treatment", "result": "0.17±0.17"}, {"measurement": "average score (corrected fraction of effective light pulses), after treatment", "result": "0.01±0.01"}, {"measurement": "light-triggered and spontaneous contractions", "result": "completely stopped"}]}]}
